Source: patent US20050221328A1, “Inhibitors of inflammatory gene activity and cholesterol biosynthesis” (Wyeth, priority 2002, published 2005)
Entries after “also recorded” stand apart in the source; their conditions may differ.

Key:
[1] = test system: Fnk, JAB, LIX, bcl-3 and SHP; assay: Liver expression of Fnk, JAB, LIX, bcl-3 and SHP by realtime PCR after estrogen receptor ligand pretreatment and IL-1β; settings: for effect on regulation of liver Fnk, JAB, LIX, bcl-3 and SHP expression vs IL-1β alone: 1 or 10 mg/kg/day E2, 30 mg/kg/day genistein, 10 mg/kg/day ICI182780, plus IL-1β
Procedure: Referring to FIG. 3a, to distinguish these two mechanisms, the IL-1β fold induction of Fnk, JAB, LIX, and bcl-3 and the IL-1β fold repression of SHP was quantified in animals pretreated with vehicle (black bars) or 100 ug/kg/day EE (grey bars). Liver RNA levels of each gene (mean +/−SEM) were determined by realtime PCR of RNA from each individual animal.
Referring to FIGS. 4a, 4b, 4c, 4d and 4e, experiments were conducted to determine whether EE blocks IL-1β induction of gene expression by an estrogen receptor (ER) dependent mechanism. Estrogens can regulate gene expression by many mechanisms including ER independent pathways such as antioxidant mechanisms. […] Liver expression levels of Fnk, JAB, LIX, bcl-3 and SHP (mean +/−SEM) were determined by realtime PCR.
Referring to FIGS. 5a, 5b, 5c, 5d, and 5e, experiments were conducted to determine whether ERα is required for EE regulation of gene expression in the liver. To determine whether ERα or ERβ mediated the EE effects on IL-1β gene expression in the liver, C57BL/6 wild type mice, C57BL/6 ERαKO mice, or 129 ERβKO mice were pretreated with vehicle (black bars) or […] EE (gray bars) for 5 days followed by a 1 hour treatment with IL-1β. Liver expression levels of Fnk, JAB, LIX, bcl-3, and SHP (mean +/−SEM) were quantified by realtime PCR, with expression in animals receiving vehicle+PBS defined as 1.0.

[2] = test system: SHP; assay: Regulation of SHP by estrogen in the rat liver, real time PCR; type: in vivo; settings: ovariectomized Sprague-Dawley rats, 10 ug/kg/day E2 or 5 mg/kg/day PPT, six weeks
Text: Liver expression of SHP was monitored by real time PCR, with normalization for GAPDH expression.

[3] = test system: SHP; assay: Regulation of SHP expression in mouse liver, six weeks treatment, real time PCR; type: in vivo; settings: for liver SHP mRNA levels, WT animals: ovariectomized wildtype mice, sc six weeks, 10 ug/kg/day E2, 5 mg/kg/day tamoxifen, 5 mg/kg/day PPT
Procedure: Several experiments were conducted to investigate the regulation of SHP expression, as follows. Referring to FIG. 9, ERα regulation of SHP expression in mouse liver was studied. […] Liver expression of SHP was monitored by real time PCR, with normalization for GAPDH expression. […] ICI182780 inhibited this induction.

[4] = test system: human SHP promoter; assay: hSHP promoter luciferase reporter in HepG2 or 293 cells cotransfected with human ERα; type: cell-based; settings: for SHP promoter activity, compound alone: 10 nM E2 or 1 uM compound, 24 hours
Procedure: Referring to FIGS. 11a and 11b, ERα regulation of hSHP promoter activity in human cells was examined. Human HepG2 or 293 cells were cotransfected with a control SV40 driven β-galactosidase plasmid, a luceriferase plasmid driven by 1.4 kb of the human SHP promoter, and an expression plasmid encoding either no protein or human ERα. […] Cell extracts were then analyzed for luciferase activity normalized for β-galactosidase activity.
Referring to FIGS. 12a, 12b, and 12c, ERα regulation of hSHP promoter activity in 293 cells was examined. Referring to FIGS. 12a and 12b, 293 cells were cotransfected with a control SV4O driven […] plasmid, a luceriferase plasmid driven by either 1.4 kb of the human SHP promoter or a synthetic 2×ERE/TK promoter, and an expression plasmid for human ERα. […] Cell extracts were then analyzed for luciferase activity with normalization for β-galaetosidase activity.

[5] = test system: prostaglandin D synthase, IPS; assay: Liver expression of prostaglandin D synthase and IPS; type: in vivo; settings: mouse liver; 30 mg/kg/day genistein, 5 mg/kg/day raloxifene
Text: Referring to FIGS. 6a and 6b, experiments were constructed and performed to establish that EE induction of gene expression is not required for ERα inhibition of IL-1β gene inductions. […] The expression level in the vehicle+PBS treated mice was defined as 1.0. […] However, there was no correlation between the ability of these compounds to inhibit IL-1β gene induction (EE>genistein>raloxifene) and the ability of these compounds to stimulate prostaglandin D synthase expression (EE>>raloxifene>genistein).

[6] = test system: SHP; assay: IL-1β inhibition of SHP expression in HepG2 cells (realtime PCR); type: cell-based, human; settings: 100 U/ml IL-1β, 3 and 6 hours, p<0.05 vs time 0
Procedure: Referring to FIG. 2, IL-1β inhibition of SHP expression in HepG2 cells was examined as follows. IL-1β is typically not associated with repression of gene expression. To verify a direct IL-1β mediated repression of SHP expression, HepG2 cells were treated with 100 U/ml IL-1β. Total RNA prepared at various times afterward was analyzed for SHP expression by using realtime PCR. […] This was not due to a general decrease in cell viability as SHP mRNA levels returned to baseline levels by 9 hours following IL-1β treatment.

[7] = test system: mouse liver; settings: GeneChip, 1 h after 20 ug/kg IL-1β ip, pretreated 5 days with vehicle or 100 ug/kg/day EE sc, vehicle+PBS=1.0;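 note: ovariectomized C57BL/6 mice, liver polyA RNA profiled, values are fold expression relative to vehicle plus PBS, averaged over two independent experiments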
Procedure: Experiments were conducted to evaluate IL-1β regulation of gene expression in the mouse liver. Ovariectomized C57BL/6 mice were pretreated by subcutaneous administration of either corn oil/ethanol vehicle or 100 ug/kg/day ethynylestradiol (EE) for 5 days. On the fifth day, the mice received an intraperitoneal injection of either PBS or 20 ug/kg IL-1β in PBS. One hour later the livers were removed and polyA RNA was prepared. Global gene expression was determined by analysis using murine 11K GeneChips from Affymetrix. For each gene, the level of expression in animals receiving vehicle pretreatment plus PBS was defined as 1.0, with the expression levels in the mice receiving vehicle pretreatment±IL-1β or EE pretreatment±IL-1β defined relative to this. The results shown are the mean from two independent experiments.
The fold regulation of each gene is plotted for animals receiving vehicle pretreatment x-axis) vs. animals receiving pretreatment with EE (y-axis). Genes with IL-1β induction unaffected by EE pretreatment would lie along the dotted diagonal.

[8] = mice, 100 ug/kg/day EE, 5 mg/kg/day raloxifene

## C[C@]12CC[C@@H]3c4ccc(O)cc4CC[C@H]3[C@@H]1CC[C@@H]2O [E2, 17β-estradiol]
[1]; [8]
  effect on regulation of liver Fnk, JAB, LIX, bcl-3 and SHP expression vs IL-1β alone: greatest effect
[2]
  liver SHP expression, rat: significantly induced
[3]; 10 ug/kg/day E2, six weeks
  expression of SHP in ERαKO or ERαβKO mice: did not induce
  expression of SHP in ERβKO mice: still induced
[3]
  liver SHP mRNA levels, WT animals: induced
[4]; 293 cells with human ERα
  SHP promoter activity, compound alone: stimulated
[4]; HepG2 or 293 cells, 10 nM E2 24 hours, only in cells expressing ERα
  SHP promoter activity: induced

## CCCc1c(-c2ccc(O)cc2)nn(-c2ccc(O)cc2)c1-c1ccc(O)cc1 [PPT]
[2]
  liver SHP expression, rat: significantly induced
[3]
  liver SHP mRNA levels, WT animals: induced

## O=C(c1ccc(OCCN2CCCCC2)cc1)c1c(-c2ccc(O)cc2)sc2cc(O)ccc12 [raloxifene]
[5]
  induction of IPS: very weak induction
[1]; mice, 5 mg/kg/day raloxifene (FIG. 4)
  SHP expression in liver: did not increase
[1]; [8]
  effect on regulation of liver Fnk, JAB, LIX, bcl-3 and SHP expression vs IL-1β alone: magnitude was not as great
[1]; mouse liver, 100 ug/kg/day EE, 30 mg/kg/day genistein, 5 mg/kg/day raloxifene
  inhibition of IL-1β induction of Fnk, JAB, LIX and bcl-3: able to inhibit; also recorded: inhibited
[4]; 293 cells with human ERα
  SHP promoter activity, compound alone: inactive alone
[4]; 293 cells with human ERα, 1 uM compound plus 10 nM E2
  effect on E2 activity at SHP promoter: antagonized

## IL-1: cytokine IL-1β, injected intraperitoneally in PBS or added to HepG2 cells
[1]; mouse liver, realtime PCR, vehicle treated or 100 ug/kg/day EE treated animals
  IL-1 repression of SHP expression: 86%
[1]; mouse liver, realtime PCR, vehicle treated or 100 ug/kg/day EE treated mice, IL-1 vs PBS
  IL-1 induction of bcl-3: 6.2 fold
[6]
  SHP expression: significantly reduced
[7]
  IL-1 Induction A20 (Tnfaip3): 14.0 fold
  IL-1 Induction B94, TNF-α induced protein 2 (Tnfaip2): 17.1 fold
  IL-1 Induction C/EBPδ (Cebpd): 7.0 fold
  IL-1 Induction CD14 (Cd14): 3.5 fold
  IL-1 Induction CD83 (Cd83): 6.2 fold
  IL-1 Induction E-selectin (Sele): 7.2 fold
  IL-1 Induction Ets transcription factor ELF3 (Elf3): 22.5 fold
  IL-1 Induction G0/G1 switch gene 2 (G0s2): 0.11 fold
  IL-1 Induction GTP binding protein IRG-47 (lfi47): 5.4 fold
  IL-1 Induction Gadd45 (Gadd45a): 10.9 fold
  IL-1 Induction Glvr-1 (Slc20a1): 3.9 fold
  IL-1 Induction H-2Ld (H-2L): 8.2 fold
  IL-1 Induction ICAM-1 (lcam1): 40.9 fold
  IL-1 Induction IL-1m (Il1m): 23.6 fold
  IL-1 Induction IL-15 receptor (Il15ra): 9.2 fold
  IL-1 Induction IxBa (Nfkbia): 8.7 fold
  IL-1 Induction JAB, suppressor of cytokine signaling 1 (Cish1): 7.3 fold
  IL-1 Induction JE/MCP-1 (Scya2): 82.3 fold
  IL-1 Induction LIX (Scyb5): 5.2 fold
  IL-1 Induction LPS inducible C—C chemokine receptor related (AF030185): 6.3 fold
  IL-1 Induction M-CSF (Csf1): 32.8 fold
  IL-1 Induction MARCKS-like macrophage protein (Mlp): 4.8 fold
  IL-1 Induction MIG (Scyb9): 15.0 fold
  IL-1 Induction MIP2 (Scyb2): 60.1 fold
  IL-1 Induction MIP-1 gamma (Scya9): 2.9 fold
  IL-1 Induction MyD118 (GADD45b): 24.3 fold
  IL-1 Induction NF-E2 related factor 2 (NRF2) (Nfe212): 5.2 fold
  IL-1 Induction NF-kappa-B p105 (Nfkb1): 13.8 fold
  IL-1 Induction NFkB p100 (Nfkb2): 4.0 fold
  IL-1 Induction PAI-1 (Serpine1): 37.6 fold
  IL-1 Induction PDGF-induced KC (Gro1): 7.3 fold
  IL-1 Induction PIM-1 protein kinase (Pim1): 2.4 fold
  IL-1 Induction SHP (NrGb2): 0.23 fold
  IL-1 Induction T-cell death associated gene (Tdag): 2.5 fold
  IL-1 Induction T-cell specific GTPase (Tgtp): 4.4 fold
  IL-1 Induction TGFB inducible early growth response (Tieg): 0.31 fold
  IL-1 Induction Ubiquitin-conjugating E2 enzyme variant 2 (Ube2v2): 5.0 fold
  IL-1 Induction VCAM-1 (Vcam1): 5.2 fold
  IL-1 Induction adrenergic receptor, beta 2 (Adrb2): 2.9 fold
  IL-1 Induction adrenomedullin (Adm): 11.3 fold
  IL-1 Induction apoptosis inhibitor 1 (Birc2): 12.2 fold
  IL-1 Induction apoptosis inhibitor 2 (Birc3): 9.6 fold
  IL-1 Induction bcl-3 (Bcl3): 11.6 fold
  IL-1 Induction c-JUN (Jun): 4.8 fold
  IL-1 Induction calcium binding protein A6 (S100a6): 2.4 fold
  IL-1 Induction calgranulin A (S100A8): 10.4 fold
  IL-1 Induction calgranulin B (S100a9): 12.5 fold
  IL-1 Induction cytokine-inducible kinase Fnk (Cnk): 2.9 fold
  IL-1 Induction gly96 (ler3): 42.1 fold
  IL-1 Induction growth factor receptor bound protein 7 (Grb7): 0.27 fold
  IL-1 Induction guanylate nucleotide binding protein 2 (Gbp2): 6.5 fold
  IL-1 Induction helix-loop-helix factor HES-1 (Hes1): 0.09 fold
  IL-1 Induction heme oxygenase 1 (Hmox1): 5.5 fold
  IL-1 Induction hsp68 (Hsp70-3): 6.3 fold
  IL-1 Induction inducible 6-phosphofructo-2-kinase (AA163244): 4.0 fold
  IL-1 Induction inhibitor of DNA binding 3 (idb3): 6.0 fold
  IL-1 Induction insulin-like growth factor binding protein 1 (lgfbp1): 4.0 fold
  IL-1 Induction intercrine (Scya7): 12.4 fold
  IL-1 Induction interferon regulatory factor 1 (Irf1): 10.5 fold
  IL-1 Induction junB (Junb): 2.9 fold
  IL-1 Induction lipocalin 2 (Lcn2): 5.5 fold
  IL-1 Induction lkB-beta (Nfkbib): 4.0 fold
  IL-1 Induction m-myc (Myc): 3.0 fold
  IL-1 Induction macrophage interferon inducible protein 10 (Scyb10): 50.1 fold
  IL-1 Induction metalloproteinase-disintegrin (Adamts1): 2.7 fold
  IL-1 Induction molecule possessing ankyrin-repeats induced by LPS (aa614971): 22.7 fold
  IL-1 Induction myocyte-enriched calcineurin interactin protein (Dscrl): 11.1 fold
  IL-1 Induction noctumin (Ccr4): 7.7 fold
  IL-1 Induction p65 NF-kappa B (Rela): 2.5 fold
  IL-1 Induction phospholipid scramblase 1 (Plscr1): 4.4 fold
  IL-1 Induction protein tyrosine phosphatase 4a1 (Ptp4a1): 2.0 fold
  IL-1 Induction regulator for ribosome resistance homolog (Rrr): 2.8 fold
  IL-1 Induction relB (Relb): 7.0 fold
  IL-1 Induction rhoB (Arhb): 30.0 fold
  IL-1 Induction serum amyloid A 3 (Saa3): 37.4 fold
  IL-1 Induction serum amyloid A 4 (Saa4): 2.5 fold
  IL-1 Induction suppressor of cytokine signaling 2 (Cish2): 2.7 fold
  IL-1 Induction suppressor of cytokine signaling 3 (Cish3): 13.5 fold
  IL-1 Induction transglutaminase (Tgm2): 2.2 fold
